Experiments:
full length ERRα = target: T1, full length ERRα (Homo sapiens, UniProt P11474); experiment: Full Length ERRα Reporter Gene Assay; type: cell-based; conditions: SK-BR-3 cells, ERRα-RE luciferase reporter, overnight incubation; read-out: mean pIC50 (converted)
T1 construct: an over-expression construct coding full length ERRα; expressed in transfected cells; host or cells: SK-BR-3 cells, transient co-transfection of pLP2124 (pcDNA3.1/Hygro(+) background) and reporter pLP2175
T1 sequence (P11474 1-423): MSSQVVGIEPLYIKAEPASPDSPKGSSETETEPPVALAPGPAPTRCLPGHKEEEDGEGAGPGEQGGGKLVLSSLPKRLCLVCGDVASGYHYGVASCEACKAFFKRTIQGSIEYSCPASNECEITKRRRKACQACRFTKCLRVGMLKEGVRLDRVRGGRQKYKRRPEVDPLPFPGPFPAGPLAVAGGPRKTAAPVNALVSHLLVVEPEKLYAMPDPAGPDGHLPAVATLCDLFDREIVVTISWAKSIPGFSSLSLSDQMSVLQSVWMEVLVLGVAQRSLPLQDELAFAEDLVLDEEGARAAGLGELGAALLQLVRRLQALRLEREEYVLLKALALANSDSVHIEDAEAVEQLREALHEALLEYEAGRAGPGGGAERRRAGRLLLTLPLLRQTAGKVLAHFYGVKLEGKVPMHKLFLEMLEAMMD
Excerpt: A method was established to quantitatively screen the potency of compounds with inverse agonistic activity on the nuclear receptor ERRα of the human species. The assay allows intra-cellular screening of ERRα inverse agonists in SK-BR-3 cells using an over-expression construct coding full length ERRα and a reporter construct containing an ERRα Response Element (RE) and a luciferase gene for read out. The activity is expressed in logIC50 values and can be used to determine SAR of compound families or to de-select compounds.
In this assay, reporter cells are obtained by transient co-transfection of two constructs in SK-BR-3 cells using standard transfection techniques. The first construct contains a response element of the nuclear receptor ERRα (Plasmid pLP2175, Reporter construct ERRα-RE/luc2P, cloned variant of ERRα_v2_synthRE, Switchgear Genomics, Catalog Number S900089). This sequence drives the transcription of the luciferase reporter gene in response to binding of an ERRα protein encoded by the second construct (Plasmid pLP2124: full length ERRα expression construct using pcDNA3.1/Hygro(+) as background, Invitrogen Catalog Number V87020).
The day after transfection, cells were plated into 96 well plates, the test compound was added and the plates were incubated overnight. Subsequently, the firefly luciferase activity was quantified using luciferase detection reagent and luminescence readout.
Transfection is performed on pre-seeded SK-BR-3 cells in a T175 flask. One transfected T175 flask is sufficient for seeding 3 to 4 MW96 plates the next day, depending on the confluency of the transfected cells.
Two different media are used in this protocol for cell treatment: 1) Culture medium, i.e. McCoy's 5a with phenol red (BioWhittaker Supplier Number 12-688F), 10% FBS and 1× Penstrep.; and, 2) Assay medium, i.e. McCoy's 5a Medium phenol red free (HyClone Product Code SH30270.01) with 2% Charcoal Stripped FBS and 1× Penstrep. Compound dilutions are prepared in assay medium.
Cells are seeded at least 2 days in advance to allow the cells to adhere well to flask before transfection. Cells should be 50-80% confluent at the day of transfection.
SKBR3 cells were transfected with the transcriptional reporter construct pLP2175 and the ERRα expression construct pLP2124 (as described above).
68 μL of Lipofectamine LTX transfection reagent (Invitrogen Catalog Number 15338-100) was added dropwise to 8.9 ml Opti-MEM I Reduced Serum Medium (Gibco Catalog Number 51985-026) and incubated at room temperature for 5 to 20 minutes. 8.9 ml of this reagent mixture was added to 22 μg pLP2175+22 μg pLP2124 (ratio 1:1 and total volume 10 ml), and incubated at room temperature for 25 minutes.
10 minutes before adding the transfection mix to SKBR3 cells in a T175 flask, the culture medium was refreshed with 20 mL culture medium. Subsequently, the 10 mL DNA-Opti-MEM-Lipofectamine mixture was gently added to the cells, followed by overnight (16-24 hours) incubation at 37° C. and 5% CO2.
To harvest SKBR3 cells from a T175 flask, first the medium was removed. Subsequently, cells were washed with Phosphate Buffered Saline (PBS) (Lonza), after which the PBS was removed. To dissociate the cells, 2 ml of TrypLE Express (I nvitrogen) was added to the flask, followed by incubation at 37° C. for 5 minutes. The flask was tapped until cells were detached from the bottom. Cells were collected in 8 mL of culture medium (McCoy's 5a, 10% FBS, penstrep), to achieve a single cell suspension. After cell count, cells were spun down for 5 minutes at 300 g. Next cell pellets were re-suspended to 25000 cells/80 μl assay medium (McCoy's 5a phenol red free, 2% charcoal stripped FBS, penstrep).
For compound screening, the cells were harvested (as described above). 80 μL of cell suspension (25,000 cells) was plated per well into a white, flat bottom, tissue culture treated, 96 well screening plates (Greiner). […]

[1] = target: T2, ERRα ligand binding domain (ERRα-LBD) (Homo sapiens, UniProt P11474); experiment: ERRα AlphaScreen Assay; type: biochemical; conditions: disruption of binding of ERRα-LBD protein to biotin-PGC1α-3 co-activator peptide; read-out: mean pIC50 (converted)
T2 construct: made in house; host or cells: E. coli
T2 sequence (P11474 193-421 limits assumed): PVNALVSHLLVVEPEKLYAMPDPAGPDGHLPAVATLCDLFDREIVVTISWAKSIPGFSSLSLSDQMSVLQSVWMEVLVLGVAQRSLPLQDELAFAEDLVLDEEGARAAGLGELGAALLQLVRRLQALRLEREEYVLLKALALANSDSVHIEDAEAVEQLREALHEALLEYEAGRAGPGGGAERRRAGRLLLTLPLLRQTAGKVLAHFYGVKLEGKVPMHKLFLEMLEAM
Excerpt: This assay was based on the knowledge that nuclear receptors interact with cofactors in a ligand dependent matter. The sites of interaction have been mapped to LXXLL motifs that are present in the co-activator sequences. Short peptide sequences that contain the LXXLL motif mimic the behavior of full length co-activators.
The ERRα AlphaScreen Assay described here relies on the interaction of the co-activator peptide with purified bacterial- expressed ERRα ligand binding domain (ERRα-LBD); upon ligand binding, the ERRα protein can undergo a conformational change resulting in a loss of co-activator binding.
Compounds of the present invention were tested for their ability to disrupt binding of ERRα-LBD protein to co-activator peptide using AlphaScreen® Technology (Perkin Elmer). ERRα-LBD protein was expressed in E. coli as a 6×His Small Ubiquitin-like Modifier (SUMO) fusion. Bacterial expressed 6His-SUMO-ERRα-LBD protein was purified using affinity chromatography. All experiments were performed at room temperature in 384-well white non-binding plates (Greiner) using 50 mM Tris-HCl pH 7.5, 100 mM NaCl, 0.1% Pluronic F-127, 0.05% BSA and 5 mM TCEP as the buffer. Final DMSO concentration was 1% in the assay. Compounds were assayed in triplicate and: incubated with 0.81 nM ERRα-LBD protein and 10 μg/mL streptavidin donor beads and 10 μg/mL Ni-chelate acceptor beads for 1 hour at room temperature; followed by a 2-hour incubation with 15 nM biotin-PGC1α-3 peptide (QRRPCSELLKYLTTNDDPP) corresponding to amino acids 202 to 220.
The AlphaScreen signal was measured using an Envision Xcite plate reader (Perkin Elmer). Data was normalized, and curve fitting analysis was performed in GraphPad Prism 7 using a four-parameter dose-response fit.

Structure (SMILES) | IC50 (full length ERRα) [nM] | IC50 [1] [nM]
COc1cc(C2CC(=O)Nc3n[nH]cc32)ccc1Oc1cc(C(F)(F)F)cc(C(F)(F)F)c1 (racemic) [Example 43, 4-{4-[3,5-bis(trifluoromethyl)phenoxy]-3-methoxyphenyl}-2H,4H,5H,6H,7H-pyrazolo[3,4-b]pyridin-6-one] | ≤ 316 | 10 to 100
COc1cc(C2CC(=O)Nc3n[nH]cc32)ccc1Oc1cc(C)cc(C(F)(F)F)c1 (single isomer, unassigned; (-)) [Example 84, (−)-4-{3-methoxy-4-[3-methyl-5-(trifluoromethyl)phenoxy]phenyl}-2H,4H,5H,6H,7H-pyrazolo[3,4-b]pyridin-6-one] | ≤ 316 | ≤ 10
COc1cc(C2CC(=O)Nc3n[nH]cc32)ccc1Oc1cc(C(F)F)cc(C(F)(F)F)c1 (single isomer, unassigned; (-)) [Example 86, (−)-4-{4-[3-(difluoromethyl)-5-(trifluoromethyl)phenoxy]-3-methoxyphenyl}-2H, 4H,5H,6H,7H-pyrazolo[3,4-b]pyridin-6-one] | ≤ 316 | ≤ 10
COc1cc(Oc2ccc(C3CC(=O)Nc4n[nH]cc43)cc2OC)cc(C(F)(F)F)c1 (centres unmarked) [Example 38, 4-{3-methoxy-4-[3-methoxy-5-(trifluoromethyl)phenoxy]phenyl}-2H,4H,5H,6H,7H-pyrazolo[3,4-b]pyridin-6-one] | ≤ 316 | ≤ 10
COc1cc(C2CC(=O)Nc3n[nH]cc32)ccc1Oc1ccccc1S(F)(F)(F)(F)F (centres unmarked) [Example 40, 4-{3-methoxy-4-[2-(pentafluoro-λ^6-sulfanyl)phenoxy]phenyl}-2H,4H,5H,6H,7H-pyrazolo[3,4-b]pyridin-6-one] | ≤ 316 | 10 to 100
COC(=O)c1cc(Oc2ccc(C3CC(=O)Nc4n[nH]cc43)cc2OC)cc(C(F)(F)F)c1 (centres unmarked) [Example 41, methyl 3-(2-methoxy-4-{6-oxo-2H,4H,5H,6H,7H-pyrazolo[3,4-b]pyridin-4-yl}phenoxy)-5-(trifluoromethyl)benzoate] | ≤ 316 | 10 to 100
COc1cc(C2CC(=O)Nc3n[nH]cc32)ccc1Oc1cc(C)cc(C(F)(F)F)c1 (centres unmarked) [Example 63, 4-{3-methoxy-4-[3-methyl-5-(trifluoromethyl)phenoxy]phenyl}-2H,4H,5H,6H,7H-pyrazolo[3,4-b]pyridin-6-one] | ≤ 316 | ≤ 10

Results, then the compound that gave them:

IC50 (full length ERRα) [nM] | IC50 [1] [nM] | Structure (SMILES)
≤ 316 | 10 to 100 | COc1cc(C2CC(=O)Nc3n[nH]cc32)ccc1Oc1ccccc1C(C)(C)C (centres unmarked) [Example 10, 4-[4-(2-tert-butylphenoxy)-3-methoxyphenyl]-2H,4H,5H,6H,7H-pyrazolo[3,4-b]pyridin-6-one]
≤ 316 | ≤ 10 | COc1cc(C2CC(=O)Nc3n[nH]cc32)ccc1Oc1ccc(O)c(C(C)(C)C)c1 (centres unmarked) [Example 29, 4-[4-(3-tert-butyl-4-hydroxyphenoxy)-3-methoxyphenyl]-2H,4H,5H,6H,7H-pyrazolo[3,4-b]pyridin-6-one]
≤ 316 | ≤ 10 | CCc1ccc(Oc2ccc(C3CC(=O)Nc4n[nH]cc43)cc2OC)c(C(C)(C)C)c1 (centres unmarked) [Example 32, 4-[4-(2-tert-butyl-4-ethylphenoxy)-3-methoxyphenyl]-2H,4H,5H,6H,7H-pyrazolo[3,4-b]pyridin-6-one]
≤ 316 | ≤ 10 | COc1cc(C2CC(=O)Nc3n[nH]cc32)ccc1Oc1ccc(Br)cc1C(C)(C)C (centres unmarked) [Example 33, 4-[4-(4-bromo-2-tert-butylphenoxy)-3-methoxyphenyl]-2H,4H,5H,6H,7H-pyrazolo[3,4-b]pyridin-6-one]
≤ 316 | ≤ 10 | COc1cc(C2CC(=O)Nc3n[nH]cc32)ccc1Oc1ccc(C)cc1C(C)(C)C (centres unmarked) [Example 34, 4-[4-(2-tert-butyl-4-methylphenoxy)-3-methoxyphenyl]-2H,4H,5H,6H,7H-pyrazolo[3,4-b]pyridin-6-one]
≤ 316 | ≤ 10 | COC(=O)c1ccc(Oc2ccc(C3CC(=O)Nc4n[nH]cc43)cc2OC)c(C(C)(C)C)c1 (centres unmarked) [Example 35, methyl 3-tert-butyl-4-(2-methoxy-4-{6-oxo-2H,4H,5H,6H,7H-pyrazolo[3,4-b]pyridin-4-yl}phenoxy)benzoate]
≤ 316 | ≤ 10 | COc1cc(C2CC(=O)Nc3n[nH]cc32)ccc1Oc1ccc(C(C)(C)C)cc1C(C)(C)C (centres unmarked) [Example 37, 4-[4-(2,4-di-tert-butylphenoxy)-3-methoxyphenyl]-2H,4H,5H,6H,7H-pyrazolo[3,4-b]pyridin-6-one]
≤ 316 | ≤ 10 | COc1cc(C2CC(=O)Nc3n[nH]cc32)ccc1Oc1ccc(C#N)cc1C(C)(C)C (centres unmarked) [Example 39, 3-tert-butyl-4-(2-methoxy-4-{6-oxo-2H,4H,5H,6H,7H-pyrazolo[3,4-b]pyridin-4-yl}phenoxy)benzonitrile]
≤ 316 | ≤ 10 | CCc1ccc(Oc2ccc(-c3cc(=O)[nH]c4n[nH]cc34)cc2OC)c(C(C)(C)C)c1 [Example 67, 4-[4-(2-tert-butyl-4-ethylphenoxy)-3-methoxyphenyl]-2H,6H,7H-pyrazolo[3,4-b]pyridin-6-one]

From patent publication US20240150342A1, “ESTROGEN-RELATED RECEPTOR ALPHA MODULATORS” (LEAD PHARMA HOLDING B.V., priority 2019, published 2024)
